# Source: US7144880B2, “Compositions relating to novel compounds and targets thereof” (Regents of the University of Michigan, priority 2003, dated 2006)
# Columns and labels:
# [1] = system: Ramos clones transfected to overexpress Bcl-xL; assay: Antiproliferation, 72 h, media with 10% FBS; assay type: cell-based, human; details: Bcl-XL overexpressing Ramos, read-out: ED50 (μM) for antiproliferation
# Description: (§1) Like most 1,4-benzodiazepines, Bz-423 binds strongly to bovine serum albumin (BSA), which reduces the effective concentration of drug free in solution. For example, in tissue culture media containing 10% (v/v) fetal bovine serum (FBS), ca. 99% of the drug is bound to BSA. Therefore, cell culture cytotoxicity assays are conducted in media with 2% FBS to reduce binding to BSA and increase the free [Bz-423]. Under these conditions, the dose response-curve is quite sharp such that there is a limited concentration range at which Bz-423 is only partly effective. Since some benzodiazepines are known to have anti-proliferative properties, the effect of Bz-423 at concentrations <ED50 were carefully analyzed and observed that in addition to inducing apoptosis, Bz-423 prevented cell growth after 3 d in culture. In these low serum conditions, the cytotoxic and anti-proliferative effects overlapped making it difficult to study each effect independently. […] While higher amounts of drug may also block proliferation, it caused apoptosis well before the effects on proliferation could be observed.
# (§2) To confirm the decrease in cell number relative to control cells after 3 d of treatment is due to decreased proliferation and not cell death balanced by proliferation, in addition to cell counting, cell divisions were studied. PKH-67 is a fluorescent probe that binds irreversibly to cell membranes and upon cell division is partitioned equally between the daughter cells, making it possible to quantify cell division by flow cytometry. Ramos cells stained with PKH67 and treated with Bz-423 had fewer cell divisions at sub-cytotoxic concentrations which confirmed that the decrease in cell number was due to anti-proliferative affects and not cell death. To determine if Bz-423 induced anti-proliferation was specific to Ramos cells, cell counting and cell cycle experiments were done in other B cell lines and cell lines derived from solid tumors.
# Ramos cells = assay: Antiproliferation, 72 h, media with 10% FBS; assay type: cell-based, human; details: read-out: ED50 (μM) for antiproliferation
# Description: as §1, §2
# [2] = system: Ramos clones transfected to overexpress Bcl-2; assay: Antiproliferation, 72 h, media with 10% FBS; assay type: cell-based, human; details: Bcl-2 overexpressing Ramos, read-out: ED50 (μM) for antiproliferation
# Description: as §1, §2
# [3] = system: central benzodiazepine receptor; assay: Binding to the central benzodiazepine receptor
# [4] = molecular target: peripheral benzodiazepine receptor (PBR) (Homo sapiens, UniProt P30536); assay: Binding to the peripheral benzodiazepine receptor
# peripheral benzodiazepine receptor (PBR), sequence (P30536 whole entry, species assumed): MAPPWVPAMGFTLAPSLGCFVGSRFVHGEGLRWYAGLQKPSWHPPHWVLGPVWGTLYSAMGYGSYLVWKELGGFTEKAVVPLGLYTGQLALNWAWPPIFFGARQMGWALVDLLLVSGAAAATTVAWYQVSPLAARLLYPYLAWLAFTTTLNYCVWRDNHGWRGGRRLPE
structure (smiles),measurement,setting,value
CN1C(=O)C(Cc2ccc3ccccc3c2)N=C(c2ccc(O)cc2)c2cc(Cl)ccc21 (centres unmarked) [Bz-423],EC50,[1],13.7 µM
same,EC50,Ramos cells,10.7 µM
same,EC50,[2],11.9 µM
same,Binding to the central benzodiazepine receptor,[3],prevents binding
same,Kd,[4],~1 µM
